Laboratory results taken from patent publication US5071855A, “Pharmacologically active piperidinylimidazopyridine compounds” (Dompe Farmaceutici SpA, priority 1989, dated 1991).
Where a name gives a salt, the structure may show the parent alone.

Tests used:
[1] = test system: mortality induced by histamine; test: Effect on the mortality induced by histamine; assay type: in vivo, male albino guinea pigs (Dunkin-Hartley); conditions: Cavia porcellus, po; guinea pig, p.o., 60 minutes before 1.25 mg/kg i.v. histamine dihydrochloride; 50% inhibition of mortality; read-out: Mortality induced by hystamine ED50 p.o.
Procedure: EFFECT ON THE MORTALITY INDUCED BY HISTAMINE
The method described by Romer D. et al. (Med. Welt. 17,791,1966) was followed and the tests were carried out on male albino guinea pigs (Dunkin-Hartley), weighing 350 to 450 g which were kept in cages with a grid floor, on an empty stomach for 24 hours with water ad libitum. The compounds under examination have been orally administered to the animals, dissolved in 0.5% carboxymethylcellulose, 60 minutes before intravenous administration of 1.25 mg/kg of histamine dihydrochloride in saline solution. In the control animals, treated with carboxymethylcellulose, the intravenous administration of histamine dihydrochloride induced a 100% mortality.
It has been evaluated ED50, which corresponds to the amount of the compound able inhibit to 50% the mortality induced by histamine: estimation of ED50 has been made applying the `probit` method (Finney D. J. "Statistical method in biological assay", pg 512,1957).

[2] = test system: mortality induced by compound 48/80; test: Mortality inhibition by compound 48/80; assay type: in vivo, Sprague Dawley Nos male rats; conditions: ip; rat, i.p., 30 minutes before 2 mg/kg i.v. compound 48/80; observed 4 hours
Procedure: MORTALITY INHIBITION BY COMPOUND 48/80
For evaluating the protection of the mortality induced by compound 48/80 administration the method described by C. J. E. Niemegeers et al. (Arch. Int. Pharmacodyn, 234,164,1978) was followed.
Sprague Dawley Nos male rats (Nossan, Correzzana, Milano) weighing 140 to 150 g, divided into groups of 10 animals each, on an empty stomach for 24 hours with water "ad libitum", were kept in cages with a grid floor, and treated intravenously with 2 mg/kg of compound 48/80 (1 ml/rat).
The animals were kept under observation for 4 hours taking note of their mortality. The results were expressed as the number of animals dead with respect to the number of treated animals. Compounds under examination or the carrier were administered 30 minutes before administration of compound 48/80 by intraperitoneal route, dissolved in H2 O (5 ml/kg) or suspended in 0.5% carboxymethylcellulose. The experimental data were submitted to the variance analysis and to subsequent multiple comparisons according to Dunnet (D. J. Finney, in "Statistical Methods in Biological assay", Ed. L. Griffin and Co. Ltd., pag. 152,1957, Edition Ames Iowa, 1971).

[3] = Evaluation of the lethal dose50 (LD50), acute toxicity; conditions: in vivo, ip; mouse, 14 days; probit method
Procedure: EVALUATION OF THE LETHAL DOSE50 (LD50)
Swiss Nos (Nossau, Correzzana, Milano) mice, weighing 18 to 20 g each, on an empty stomach for 18 hours with water "ad libitum" and kept in cages with grid floor, were used. The animals, divided into groups of 10 animals each, (5M+5F) were treated intraperitoneally (10 ml/kg) with the compounds under examination dissolved in water or suspended in 0.5% carboxymethyl-cellulose. The animals were kept in the cages and the mortality occurred within the following 6 hours was noted down. At the expiring of the 6 hours the animals were allowed to eat up to the end of the experimentation which lasted 14 days. During this period all the toxic symptoms and the mortality occuring were noted.
The animals which died during the test period and those which were sacrificed at the end of the same, underwent autopsy for a macroscopic examination of their main organs. The experimental data were statistically compared with the X^2 method and LD50 was extrapolated by the `probit` method.

Row | SMILES | ED50 [1] [mg/kg] | ED50 [2] [mg/kg] | LD50 at 336 h [3] [mg/kg]
1 | CCOCCn1c(C2CCN(C)CC2)nc2cccnc21 [Example 2, 3-(2-Ethoxyethyl)-2-(1-methylpiperidin-4-yl)-3H-imidazo [4,5-b] pyridine 1.5 fumarate] | 0.042 | 0.34 | 500
2 | CCOCCn1c(C2CCCN(C)C2)nc2cccnc21.O=C(O)/C=C/C(=O)O.O=C(O)/C=C/C(=O)O (stereo not drawn) [Example 5, 3-(2-Ethoxyethyl)-2-(1-methylpiperidin-3-yl)-3H-imidazo [4,5-b] pyridine difumarate] | 0.05 | 0.59 | < 100
3 | CN1CCCC(c2nc3cccnc3n2Cc2ccccc2)C1 (stereo not drawn) [Example 8, 3-Benzyl-2-(1-methylpiperidin-3-yl)-3H-imidazo [4,5-b] pyridine] | 0.078 | – | > 100
4 | CC(C)(C)c1ccc(C(O)CCCN2CCC(C(O)(c3ccccc3)c3ccccc3)CC2)cc1 (stereo not drawn) [Terfenadine, reference compound] | – | 1.99 | –
